Values of other authors in US9511011B2, “TRPV1 inhibitory peptides and composition for skin-aging protection or wrinkle improvement comprising the same” (SNU R&DB FOUNDATION, priority 2012, dated 2016).

Target: T1, TRPV1 (Homo sapiens, UniProt Q8NER1)
T1 construct: Capsaicin stimulus increases intracellular Ca^2+ level in keratinocytes, which is suppressed by capsazepine; host or cells: keratinocytes (endogenous TRPV1)
Conditions: keratinocytes

T1 sequence (Q8NER1 whole entry): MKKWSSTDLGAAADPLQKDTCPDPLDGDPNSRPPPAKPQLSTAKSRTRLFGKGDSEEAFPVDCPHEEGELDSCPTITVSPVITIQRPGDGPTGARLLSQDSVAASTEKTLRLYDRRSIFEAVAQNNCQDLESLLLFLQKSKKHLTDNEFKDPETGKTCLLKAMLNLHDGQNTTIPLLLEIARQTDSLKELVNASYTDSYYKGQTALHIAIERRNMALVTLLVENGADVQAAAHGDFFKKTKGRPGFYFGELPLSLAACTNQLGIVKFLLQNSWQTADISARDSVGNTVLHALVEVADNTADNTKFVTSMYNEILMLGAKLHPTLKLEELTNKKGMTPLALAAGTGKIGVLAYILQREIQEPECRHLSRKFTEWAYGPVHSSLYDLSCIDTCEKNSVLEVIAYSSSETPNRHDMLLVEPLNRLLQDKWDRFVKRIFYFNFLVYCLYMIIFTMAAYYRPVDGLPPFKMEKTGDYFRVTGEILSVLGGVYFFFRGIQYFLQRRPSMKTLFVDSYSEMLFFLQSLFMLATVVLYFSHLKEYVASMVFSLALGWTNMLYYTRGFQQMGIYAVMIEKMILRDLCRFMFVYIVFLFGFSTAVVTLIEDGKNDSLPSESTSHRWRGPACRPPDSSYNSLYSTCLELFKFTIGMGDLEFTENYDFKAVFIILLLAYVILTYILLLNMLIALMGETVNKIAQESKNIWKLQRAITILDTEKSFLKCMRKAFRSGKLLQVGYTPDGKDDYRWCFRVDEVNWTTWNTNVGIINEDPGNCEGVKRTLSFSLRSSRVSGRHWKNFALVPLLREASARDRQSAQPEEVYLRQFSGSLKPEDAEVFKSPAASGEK

intracellular Ca2+ level increased by capsaicin stimulus: suppressed
Compound: Oc1cc2c(cc1O)CN(C(=S)NCCc1ccc(Cl)cc1)CCC2 [capsazepine]
